Activity calls are given as the source filed them. How the calls were made is not given here.
Each compound was assayed on B cell line, CD40 signaling inhibition reporter (assay: CD40 pathway inhibition in B cells – B cell lineage, dose response (AID 1259332);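 further: cells stimulated with CD40 ligand tCD40L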).
`C[C@@H]1CN([C@H](C)CO)C(=O)c2cc(NC(=O)Nc3cccc4ccccc34)ccc2O[C@@H](C)CCCCO[C@H]1CN(C)Cc1ccc(C(F)(F)F)cc1` gave an AC50 of 1.91 µM.
With `CS(=O)(=O)c1ccc(C(=O)OCC(=O)NC(=O)C2COc3ccccc3O2)cc1[N+](=O)[O-]` (stereo not given) the AC50 was 10.2 µM.
`CNC(=S)NN=C(C)CCCC(C)=NNC(=S)NC` showed an AC50 of 1.26 µM.
`CC(=O)OCC12CC(OC(=O)CC(C)C)C(C)=CC1OC1C(O)C(OC(C)=O)C2(C)C12CO2` (stereo not given) gave an AC50 of 2.74 µM.
With `C[C@@H]1CN([C@@H](C)CO)C(=O)c2ccccc2-c2ccccc2CO[C@@H]1CN(C)Cc1ccc(Oc2ccccc2)cc1` the AC50 was > 20 µM (inactive).
`Cc1cnc(NC(=O)c2ccc(OCC3CCCO3)cc2)s1` (stereo not given) was tested, and the AC50 was 3.03 µM.
`Cc1cc(C(=O)COC(=O)c2ccco2)c(C)n1Cc1ccco1` gave an AC50 of 0.11 µM.
Compound `C[C@H]1CN([C@@H](C)CO)C(=O)c2ccccc2-c2ccccc2CO[C@@H]1CN(C)Cc1ccccc1C(F)(F)F` has an AC50 of 7.28 µM.
Compound `COc1ccc(S(=O)(=O)Nc2ccc3c(c2)C(=O)N([C@H](C)CO)C[C@@H](C)[C@@H](CN(C)Cc2ccc(C(F)(F)F)cc2)OCCCC[C@@H](C)O3)cc1` has an AC50 of 8.69 µM.
In the case of `CC12CCC3C(CCC4(O)CC(O)CCC34C=O)C1(O)CCC2C1=CC(=O)OC1` (stereo not given), the AC50 is reported as 3.86 µM.
`N#C[C@@H]1[C@H](c2ccc(C#CC3CCCC3)cc2)[C@H](CO)N1C(=O)Cc1ccccn1` gave an AC50 of 9.08 µM.
Work on `O=C(C1CCCC1)N1CC(=O)N2[C@@H](CO)[C@@H](c3ccc(C#CCc4ccccc4)cc3)[C@@H]2C1` yielded an AC50 of 1.95 µM.
In the case of `Cc1ccc(OC(=O)N(C)C[C@@H]2OCc3ccccc3-c3c(n(C)c4ccccc34)C(=O)N([C@@H](C)CO)C[C@H]2C)cc1`, the AC50 is reported as 7.62 µM.
`COc1ccc(-c2ccc([C@H]3[C@@H](C#N)N(C(=O)c4cccc(F)c4)[C@H]3CO)cc2)cc1` was tested, and the AC50 was > 22 µM (inactive).
`C=C1CC(Cn2cc(Br)c(=O)[nH]c2=O)(c2ccc(-c3ccccc3)cc2)OC1=O` (stereo not given) was tested, and the AC50 was 1.07 µM.
For `C[C@H]1CN([C@@H](C)CO)C(=O)c2ccccc2-c2ccccc2CO[C@H]1CN(C)C(=O)[C@@H](Cc1ccccc1)N(C)C`, the AC50 was > 20 µM (inactive).
`O=C(Cc1ccccc1)N1CC[C@@H]2[C@H]1c1cc(C#Cc3cccc(F)c3)ccc1N[C@@H]2CO` showed an AC50 of 5.19 µM.
With `Cc1noc(C)c1S(=O)(=O)Nc1ccc2c(c1)CC(=O)N([C@@H](C)CO)C[C@@H](C)[C@@H](CN(C)Cc1ccc(Oc3ccccc3)cc1)O2` the AC50 was 7.39 µM.
For `COCCn1c(C)cc(C(=O)COC(=O)c2ccc(Cl)c(S(N)(=O)=O)c2)c1C`, the AC50 was > 20 µM (inactive).
With `CCC(C)[C@H]1O[C@]2(CC[C@@H]1C)C[C@@H]1C[C@@H](C/C=C(\C)[C@@H](OC3C[C@H](OC)C(O[C@H]4C[C@H](OC)[C@@H](O)[C@H](C)O4)[C@H](C)O3)[C@@H](C)/C=C/C=C3\CO[C@@H]4[C@H](O)C(C)=C[C@@H](C(=O)O1)[C@]34O)O2` (stereo not given in full) the AC50 was > 20 µM (inactive).
`O=C1NC2c3c(Cl)sc(Cl)c3C(=O)C2O1` (stereo not given) gave an AC50 of 7.36 µM.
For `Cc1ccc(N2CC(C(=O)Nc3nccs3)CC2=O)cc1Cl` (stereo not given), the AC50 was 8.73 µM.
`COc1ccc(CC2C(=O)NC(C)C(=O)N(C)C3C(=O)N(C)C(Cc4ccc(O)c(c4)Oc4ccc(cc4)C3O)C(=O)NC(C)C(=O)NC(C)C(=O)N2C)cc1` (stereo not given) showed an AC50 of 0.00902 µM.
Compound `COc1cc2cc(C(=O)N3CC(COS(C)(=O)=O)c4ccc(O)cc43)[nH]c2c(OC)c1OC` (stereo not given) has an AC50 of 0.00741 µM.
Work on `CC1CC(C)C(=O)C(C(O)CC2CC(=O)NC(=O)C2)C1` (stereo not given) yielded an AC50 of 0.196 µM.
Compound `c1ccn2cc(-c3ccc4c(c3)OCCO4)nc2c1` has an AC50 of 10.2 µM.
`N#C[C@@H]1[C@H](c2ccc(C#Cc3ccc(F)cc3)cc2)[C@@H](CO)N1C(=O)C1CCC1` gave an AC50 of 4.71 µM.
`N#Cc1cccc(-c2ccc(C3[C@@H]4CN(C(=O)Nc5ccc(C(F)(F)F)cc5)C[C@H]3N4)cc2)c1` (stereo not given in full) showed an AC50 of 8.9 µM.
For `COc1cccc(NC(=O)N2CC(=O)N3[C@H](CO)[C@@H](c4ccc(C#CCC5CCCC5)cc4)[C@H]3C2)c1`, the AC50 was > 7 µM (inactive).
With `O=C(Nc1ccc2c(c1)OCCO2)C1CCCC1` the AC50 was 5.46 µM.
With `O=C(OC1CCOC1=O)c1ccccc1C(=O)c1ccc(Cl)c([N+](=O)[O-])c1` (stereo not given) the AC50 was > 20 µM (inactive).
In the case of `CC(C)CCCCCCCCCCCCC(=O)NCC(=O)NC1C(O)C(O)C(Nc2ncnc3nc[nH]c23)OC1C(O)CO` (stereo not given), the AC50 is reported as 0.0128 µM.
In the case of `Cc1cccc(-c2nc3cc(NC(=O)C4CCCO4)ccc3o2)c1` (stereo not given), the AC50 is reported as > 20 µM (inactive).
For `COc1ccc2c(c1)c1ncn(Cc3ccccn3)c(=O)c1n2C`, the AC50 was > 20 µM (inactive).
Work on `C[C@H]1CN([C@@H](C)CO)C(=O)c2cccc(NC(=O)Nc3ccc(F)cc3)c2O[C@H]1CN(C)S(=O)(=O)c1ccc(Cl)cc1` yielded an AC50 of 4.87 µM.
`O=C(Nc1ccccn1)c1ccc(-c2ccccc2)cc1` was tested, and the AC50 was 2.35 µM.
`Oc1ccc2c(c1)OCC1(O)Cc3cc(O)c(O)cc3C21` (stereo not given) gave an AC50 of 2.81 µM.
With `CCCCCCCCCCCCCCCC[n+]1ccccc1` the AC50 was 0.266 µM.
For `C[C@H]1CN([C@@H](C)CO)C(=O)c2c(c3ccccc3n2C)-c2ccccc2CO[C@@H]1CN(C)S(=O)(=O)c1ccc([N+](=O)[O-])cc1`, the AC50 was > 20 µM (inactive).
Compound `CC1(C)C(=O)C=C[C@@]2(C)C1C[C@@H](O)[C@]1(C)C2CC[C@@]2(C)[C@H](c3ccoc3)OC(=O)[C@H]3O[C@]321` (stereo not given in full) has an AC50 of 7.18 µM.

Reference: PubChem BioAssay AID1259332 (Broad Institute, 2017)
